Paper PMC10604213, “Purification and Characterization of Polyphenol Oxidase in the Fruits of Opuntia ficus-indica” (Biology, 2023)
Blank lines part the entries; values can stand above or below the molecule they belong to.

Columns and labels:
[1] = tested on: T1, polyphenol oxidase (PPO) from the fruits of Opuntia ficus-indica; test: absorbance at […] nm, Lineweaver-Burk; format: biochemical; settings: 0.1 M phosphate buffer
T1 construct: native, from fruit flesh; few SDS-PAGE bands, two prominent: slightly below 35 kDa and slightly above 45 kDa

[2] = tested on: T1, polyphenol oxidase (PPO) from the fruits of Opuntia ficus-indica; test: absorbance at […] nm, Lineweaver-Burk; format: biochemical; settings: pH 9.0, 20 °C, 0.1 M Tris-base buffer

Km ([1]; pH 7.5, 30 °C): 5.38 mM
SMILES: Cc1ccc(O)c(O)c1 [4-methyl catechol]

Km [2]: 16.7 mM
SMILES: Oc1cccc(O)c1O [pyrogallol]

SMILES: Oc1ccccc1O [catechol]
Km ([1]; pH 7.5, 20 °C): 6.33 mM
